Source: paper PMC6697720, “Saturation of acyl chains converts cardiolipin from an antagonist to an activator of Toll-like receptor-4” (Cellular and Molecular Life Sciences: CMLS, 2019)

Legend:
[1] = target: T1, human TLR4, MD2, and CD14 (Homo sapiens, UniProt O00206+Q9Y6Y9); assay: NF-κB luciferase reporter activation by CLs in HEK293 cells transfected with human TLR4, MD2 and CD14; assay type: cell-based; details: for activation of human TLR4 (NF-κB): 6 h incubation
T1 construct: expressed in transfected cells; host or cells: HEK293 (ATCC CRL1573), transient transfection with jetPEI
Method: Cells were seeded at 4 × 10^4 cells/mL in 96-well plates (200 μL/well) and transiently transfected 4 days later. Expression vectors containing an NF-κB transcription reporter vector-encoding firefly luciferase (10 ng/well pNF-κB-luc from Clontech), and a constitutively active reporter vector-encoding Renilla luciferase (5 ng/well phRG-TK; Promega), together with empty vector (pcDNA3.1 from Invitrogen Cat. N. V79020) and cDNA encoding human membrane CD14 (3 ng/well) and human or murine TLR4 and MD2 (3 ng/well) were mixed with jetPEI (Polyplus transfection Cat.N. 101-10N) and incubated with cells according to the manufacturer’s instructions.
After treatment supernatants were discarded, cells were washed with PBS and lysed with passive lysis buffer (Promega Cat.N. E1941). Luciferase and Renilla activity on cell lysates were quantified on a BioTek Synergy HT microplate reader using home-made luciferase reagent (20 mM Tricine, 2.67 mM MgSO4·7H2O, 0.265 mM (MgCO3)4Mg(OH)2·5H2O, 0.1 mM EDTA, 33.3 mM DTT, 530 μM ATP, 270 μM Acetyl Coenzyme A (Lithium salt), 470 μM luciferin (Biosynth), pH 7.8, diluted two times in water before use), or coelenterazine (Biosynth) dissolved in ethanol at 1 mg/mL and diluted 500 times in PBS before use as previously described. Firefly and Renilla luciferase activity on cell lysates were normalized, and data were expressed as fold induction as compared to unstimulated conditions.
The first signaling event of these pathways is NF-κB activation through TLR4 activation. To investigate how the individual CD14, TLR4, and MD2 proteins contribute to the responses of cells to CL, we used the HEK transfection model where we can control which protein (including from different species) may be added to the cells and their contribution to CL activation of Nf-κB [21, 30, 31]. We transfected HEK293 cells with human or murine CD14 and MD2 with or without TLR4 and incubated them with saturated CLs for 6 h (Fig. 4a). All three saturated CLs activated murine TLR4. By contrast, only C16:0 and C18:0 activated the human receptor. To further confirm the role of TLR4, we compared TNF-α secretion induced by C14:0 CL in wild-type (WT) or TLR4 knock out (TLR4 KO) immortalized BMDMs. Both LPS and C14:0 CL induced TNF-α secretion in WT but not in TLR4-KO BMDMs (Fig. 4b). TLR4-KO BMDMs were normally responsive to TLR2 ligand Pam3CSK4 (data not shown).
Fig. 4 Saturated CLs are TLR4 agonists. a HEK293 cells were transfected with plasmids encoding murine TLR4, MD2, and CD14 (mTLR4), human TLR4, MD2, and CD14 (hTLR4) or with empty pcDNA3.1 plasmid, MD2 and CD14 (w/o TLR) together with a luciferase reporter plasmid dependent on NF-κB activation and a constitutively active reporter vector-encoding renilla luciferase. Two days after transfection, cells were incubated for 6 h with medium alone (Ctrl) or the indicated amount of CLs or LPS. Luciferase and renilla were quantified in cell lysate, normalized and reported here as fold induction as compared to control. Unpaired t test: differences compared to the control are not significant if p > 0.05(no symbol); *p ≤ 0.005. b WT and TLR4-KO iBMDM cells were incubated overnight with medium (c), LPS or C14:0 CL. For each condition, mTNF-α was measured by ELISA assay. Unpaired t test: differences with respect to the control are not significant if p > 0.05(no symbol); *p ≤ 0.0001. Each bar represents the mean + standard deviation of three biological replicates (n = 3). […]

RAW-Blue cells = assay: NF-κB activation (SEAP, Quanti-Blue) by CL or LPS in RAW-Blue cells; assay type: cell-based, murine; details: CL alone, overnight
Method: RAW-Blue™ cells were seeded the day before the experiment at 5 × 10^5 cells/mL in 48-well plates (500 μL/well).
These cells express a secreted embryonic alkaline phosphatase (SEAP) when NF-κB is activated. NF-κB activation was measured by measuring the alkaline phosphatase produced by RAW-Blue™ cells using the Quanti-Blue™ reagent (InvivoGen), according to the manufacturer’s instructions.
Fig. 3 Saturated but not unsaturated CLs have pro-inflammatory properties. a RAW-Blue™ cells were incubated overnight with the indicated amount of CL or LPS, supernatants were collected, and NF-κB activation quantified via Quanti-Blue™ test and reported here as fold induction as compared to control. Unpaired t test: differences with respect to the control (Ctrl) are not significant if p > 0.05 (no symbol); *p ≤ 0.0007. b Immortalized BMDM cells were incubated overnight with the indicated amount of CL or LPS; supernatants were collected and TNF-α quantified via ELISA assay. c, d Primary human monocytes were incubated overnight with the indicated amount of CL or LPS with or without the NLRP3 inhibitor MCC950, supernatants were collected, and TNF-α and IL-1β were quantified via ELISA assay. Graphs are representative of experiments from six different donors. Unpaired t test: differences with respect to the control (Ctrl) are not significant if p > 0.05 (no symbol); *p ≤ 0.021. Each bar represents the mean + standard deviation of three biological replicates (n = 3). Graphs are representative of at least three independent experiments

T1 sequence (O00206 24-839): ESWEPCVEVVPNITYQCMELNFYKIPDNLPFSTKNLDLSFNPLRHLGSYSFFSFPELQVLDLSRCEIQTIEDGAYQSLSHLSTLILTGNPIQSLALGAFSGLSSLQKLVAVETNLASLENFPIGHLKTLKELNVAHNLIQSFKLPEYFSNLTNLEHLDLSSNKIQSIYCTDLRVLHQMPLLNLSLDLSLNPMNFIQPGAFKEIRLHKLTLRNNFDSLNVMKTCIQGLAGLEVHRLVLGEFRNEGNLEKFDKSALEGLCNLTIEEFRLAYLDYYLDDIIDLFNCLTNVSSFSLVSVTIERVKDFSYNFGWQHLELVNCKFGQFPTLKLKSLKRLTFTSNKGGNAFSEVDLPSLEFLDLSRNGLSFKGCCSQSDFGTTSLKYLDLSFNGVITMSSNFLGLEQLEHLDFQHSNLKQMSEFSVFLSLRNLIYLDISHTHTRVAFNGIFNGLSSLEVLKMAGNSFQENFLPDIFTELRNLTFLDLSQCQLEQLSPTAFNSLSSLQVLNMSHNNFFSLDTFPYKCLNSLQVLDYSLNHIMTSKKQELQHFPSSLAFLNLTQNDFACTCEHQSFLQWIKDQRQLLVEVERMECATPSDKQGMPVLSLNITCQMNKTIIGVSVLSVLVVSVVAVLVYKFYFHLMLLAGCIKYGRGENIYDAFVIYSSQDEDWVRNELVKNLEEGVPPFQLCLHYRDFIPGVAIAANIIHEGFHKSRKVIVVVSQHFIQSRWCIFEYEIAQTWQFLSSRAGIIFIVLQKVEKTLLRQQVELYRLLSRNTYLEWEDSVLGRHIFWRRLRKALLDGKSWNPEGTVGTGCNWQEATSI
T1 sequence (Q9Y6Y9 19-160): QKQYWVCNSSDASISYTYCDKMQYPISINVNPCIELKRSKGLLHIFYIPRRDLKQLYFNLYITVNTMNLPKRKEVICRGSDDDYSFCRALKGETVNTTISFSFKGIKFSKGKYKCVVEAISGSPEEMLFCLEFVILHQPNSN

activation of human TLR4 (NF-κB) [1]	NF-κB induction in HEK293 cells transfected with TLR4 in the absence of CD14 or MD2 ([1]; hTLR4 without CD14 or without MD2, 6 h)	SMILES	NF-κB activation (RAW-Blue cells)
activated	not induced	CCCCCCCCCCCCCCCCCC(=O)OC[C@H](COP(=O)(O)OCC(O)COP(=O)(O)OC[C@@H](COC(=O)CCCCCCCCCCCCCCCCC)OC(=O)CCCCCCCCCCCCCCCCC)OC(=O)CCCCCCCCCCCCCCCCC (some centres unmarked) [C18:0 CL]	induced
not	–	CCCCCCCCCCCCCC(=O)OC[C@H](COP(=O)(O)OCC(O)COP(=O)(O)OC[C@@H](COC(=O)CCCCCCCCCCCCC)OC(=O)CCCCCCCCCCCCC)OC(=O)CCCCCCCCCCCCC (some centres unmarked) [C14:0 CL]	induced
